Laboratory results taken from patent US20040018500A1, “Methods and systems for analyzing complex biological systems” (priority 2001, published 2004).

Assays:
[1] = test system: Arabidopsis thaliana plants; assay: SOA1 phenotypic analysis of herbicide-treated Arabidopsis plants; assay type: in vivo
Arabidopsis thaliana [2] = assay: MOA1 phenotypic profiling of Arabidopsis sprayed with unknown and commercial herbicides; assay type: in vivo
[3] = test system: Saccharomyces cerevisiae wild type strain BY4743; assay: AF1 combined gene expression and metabolite data mapped to KEGG reactions and pathways; assay type: cell-based
From the text: In AF1, two different technologies were utilized: gene expression analysis (for examination of mRNA expression) and metabolite analysis. […] As noted previously, existing metabolic databases may be helpful in practicing the methods and systems of the present invention, but many databases include limitations that make their use in data analysis and pathway mapping less than straightforward. […] This caveat to KEGG makes it difficult to pinpoint the correct pathway when attempting to link a gene to a specific pathway. […] The pathway score indicates how meaningful the mapping is, or how likely it is to be correctly indicative of the pathway involved in the perturbation under examination. The method provides a pathway score based on perturbation levels of genes and/or compounds and the information content of each gene and/or compound in the pathway, i.e., a pathway score indicates the extent to which other pathways are mapped to a gene/compound. For example, imagine that two genes are perturbed in a particular experiment. One gene maps to only one pathway, giving a high degree of probability that the perturbed pathway is the one identified in the mapping. The second gene maps to three pathways. In the later example, there is only one-third the probability that the pathway identified in the mapping is the one perturbed. The present invention provides a method for calculating the pathway scores, so that more weight is given to a score of a gene or compound that maps to only one pathway than to a score of a gene or compound that maps to multiple pathways. […] Where n=the total number of genes in the pathway; ipath—count=the number of pathways containing a gene; and j=the number of genes in the pathway that are perturbed. Another factor to be considered when weighting a pathway score is the degree of perturbation. Degree of perturbation can be calculated, for example, based on a number of standard deviations from a norm, and included in an equation such as the one shown above, so that not only the number of pathways is taken into account, but also accounts for the amount of gene transcript or compound present as compared to a control. Compounds were also linked to pathways using the KEGG database. […] Of the 676 compounds under consideration, 77 were detected in the AF1 samples. […] The multiple mapping feature of KEGG makes it difficult to pinpoint the correct pathway when trying to link a compound to a specific pathway. […] A pathway score calculation is applied to the compounds to account for both information content (number of pathways a compound maps to) and perturbation level. The data were then combined to determine the number of reactions showing an enzyme and at least one compound perturbed, and to determine the number of pathways having at least one enzyme and one perturbed compound perturbed. The results of the analysis are represented in Tables 16 and 17, and were difficult to interpret, illustrating that the ability to draw conclusions from compound mapping to pathways is limited when absent additional data.

[4] = test system: Saccharomyces cerevisiae wild type strain BY4743; assay: AF1 metabolite analysis (GC-MS, LC-MS) of yeast treated with antifungal drugs; assay type: cell-based
Arabidopsis thaliana [5] = assay: MOA1 biochemical (metabolite) profiling by LC-MS and GC-MS of sprayed Arabidopsis; settings: MOA1; 20 minutes and 1 hour after spraying

Nc1nc[nH]n1 [Amitrole]
characteristic symptoms (phenotypic analysis) ([1]; herbicide-treated Arabidopsis): leaf bleaching and leaf enlargement
Symptom Class ([1]; three-week-old Arabidopsis treated with herbicide, phenotypes shown in FIG. 12): 2
phenotype observed (Arabidopsis thaliana [2]): exhibited chlorosis and not true bleaching

OC(Cn1cncn1)(Cn1cncn1)c1ccc(F)cc1F [Fluconazole]
Number of Reactions Having an Enzyme and at Least One Compound Perturbed [3]: 2
Fold Change of alanine ([4]; GC): 0.3084
Fold Change of asparagine ([4]; GC): 0.3999
Fold Change of aspartic acid ([4]; GC): 0.4337
Fold Change of campesterol ([4]; GC): 0
Fold Change of desmosterol ([4]; GC): 0
Fold Change of disaccaride1 ([4]; GC): 0.3883
Fold Change of disaccaride2 ([4]; GC): 0.1517
Fold Change of disaccaride3 ([4]; GC): 0.5803
Fold Change of ergosterol ([4]; GC): 0.948
Fold Change of fucosterol ([4]; GC): 6.665
Fold Change of glutamine ([4]; GC): 0.5242
Fold Change of glycanopyrose ([4]; GC): 1.202
Fold Change of glycerol ([4]; GC): 0.2187
Fold Change of glycine ([4]; GC): −0.1037
Fold Change of hexadecanoic acid ([4]; GC): 0.1343
Fold Change of iso citric acid ([4]; GC): 0.3923
Fold Change of isoleucine ([4]; GC): 0.391
Fold Change of lanosterol ([4]; GC): 8.462
Fold Change of leucine ([4]; GC): 0.3387
Fold Change of lysine ([4]; GC): 0.3412
Fold Change of malic acid ([4]; GC): 0.3975
Fold Change of mevalonic acid lactone ([4]; GC): 0.2333
Fold Change of octadecanoic acid ([4]; GC): 0.082
Fold Change of oleic acid ([4]; GC): −0.3073
Fold Change of ornithine2 ([4]; GC): 0.4473
Fold Change of ornithine3 ([4]; GC): 0.2647
Fold Change of palmiteliadic acid ([4]; GC): −0.08867
Fold Change of phenylalanine ([4]; GC): 0.2774
Fold Change of phosphate ([4]; GC): −0.508
Fold Change of pyrimidine ([4]; GC): 0.2457
Fold Change of abscisic acid ([4]; LC): 0
Fold Change of adenosine ([4]; LC): 0
Fold Change of glutamine/lysine ([4]; LC): 0.2242
Fold Change of guanosine ([4]; LC): −0.9981
Fold Change of 2-ketobutyric acid ([4]; nLC): −0.9992
Fold Change of 2-ketoglutaric ([4]; nLC): −0.9995
Fold Change of 3-indolylacetonitri ([4]; nLC): −0.9998
Fold Change of 4-methylcatechol ([4]; nLC): 0
Fold Change of 4aminobutyrate/dimg ([4]; nLC): 0.1384
Fold Change of 5hydroxyLtryptophan ([4]; nLC): 0
Fold Change of 6-benzylaminopurine ([4]; nLC): 0
Fold Change of DLaminoadipic acid ([4]; nLC): 0.443
Fold Change of NacetylDglucosamine ([4]; nLC): 0
Fold Change of NacetylLglutamate ([4]; nLC): 0.1369
Fold Change of NacetylLornithine ([4]; nLC): 0
Fold Change of abscisic acid ([4]; nLC): 0
Fold Change of aconitic acid ([4]; nLC): 0.6483
Fold Change of adenine ([4]; nLC): 0
Fold Change of adenosine ([4]; nLC): 0
Fold Change of alanine ([4]; nLC): 0.399
Fold Change of allantoic acid ([4]; nLC): 0.2392
Fold Change of allantoin ([4]; nLC): 0.3942
Fold Change of anthranilic acid ([4]; nLC): 0
Fold Change of arginine ([4]; nLC): 0.6484
Fold Change of argininosuccinate ([4]; nLC): 0
Fold Change of asparagine ([4]; nLC): 0.3545
Fold Change of aspartic ([4]; nLC): 0.4993
Fold Change of benzoic acid ([4]; nLC): 0
Fold Change of biotin ([4]; nLC): 0.3455
Fold Change of caffeic acid ([4]; nLC): −0.4711
Fold Change of catechol ([4]; nLC): 0
Fold Change of cinnamic acid ([4]; nLC): 0
Fold Change of citricanoic/itaconi ([4]; nLC): 0
Fold Change of citrulline ([4]; nLC): 0
Fold Change of coumaric acid ([4]; nLC): 0
Fold Change of cytidine ([4]; nLC): −0.7969
Fold Change of cytosine ([4]; nLC): 0
Fold Change of decanoic acid ([4]; nLC): 0.1846
Fold Change of diaminopimelic acid ([4]; nLC): 0
Fold Change of dihydrofolic acid ([4]; nLC): 0
Fold Change of estrone ([4]; nLC): 0
Fold Change of farnesol ([4]; nLC): 0
Fold Change of folic acid ([4]; nLC): 0
Fold Change of fumaric/3m2oxobutan ([4]; nLC): 0.6009
Fold Change of gallic acid ([4]; nLC): 0.5071
Fold Change of gibberellic ([4]; nLC): 0
Fold Change of giutamine/lysine ([4]; nLC): 0.3309
Fold Change of glucosamine6PO4 ([4]; nLC): −0.9951
Fold Change of glutamic/acetylseri ([4]; nLC): 0.3842
Fold Change of guanine ([4]; nLC): 0
Fold Change of guanosine ([4]; nLC): −0.993
Fold Change of histidine ([4]; nLC): 0
Fold Change of homogentisic/uric ([4]; nLC): 0
Fold Change of hydrocortisone ([4]; nLC): 0
Fold Change of indole3pyruvic acid ([4]; nLC): 0
Fold Change of inostol/glucos/sorb ([4]; nLC): −0.4744
Fold Change of isocitric/citric/qu ([4]; nLC): 1.457
Fold Change of jasmonic acid ([4]; nLC): 0
Fold Change of kinetin ([4]; nLC): 0
Fold Change of lactic acid ([4]; nLC): −0.0439
Fold Change of lauric acid ([4]; nLC): 0.3906
Fold Change of leucine/isoleucine/ ([4]; nLC): 0.3306
Fold Change of luteolin ([4]; nLC): 0
Fold Change of malic acid ([4]; nLC): 0.4366
Fold Change of malonic acid ([4]; nLC): 0
Fold Change of menthol* ([4]; nLC): 0.04758
Fold Change of methionine ([4]; nLC): 0
Fold Change of nicotinic acid ([4]; nLC): 2.443
Fold Change of nopaline ([4]; nLC): 0.3432
Fold Change of oleic acid ([4]; nLC): −0.01684
Fold Change of ornithine ([4]; nLC): 0.3508
Fold Change of orotic acid ([4]; nLC): 0
Fold Change of palmitic acid ([4]; nLC): −0.0233
Fold Change of phenylalanine ([4]; nLC): 0.1527
Fold Change of phenylpyruvic acid ([4]; nLC): 0
Fold Change of phosphoenolpyruvate ([4]; nLC): 0
Fold Change of pinitol ([4]; nLC): 0
Fold Change of pipecolic acid ([4]; nLC): 0.2901
Fold Change of porphobilinogen ([4]; nLC): 0
Fold Change of proline ([4]; nLC): 0.4164
Fold Change of pyridoxine ([4]; nLC): −0.04201
Fold Change of 4-aminobenzoic acid ([4]; pLC): 0
Fold Change of 4-methylcatechol ([4]; pLC): 0
Fold Change of 4ambutyrate/dimglyc ([4]; pLC): −0.4383
Fold Change of 5hydroxyLtryptophan ([4]; pLC): 0
Fold Change of 6benzylaminopurine ([4]; pLC): 0
Fold Change of DL-aminoadipic acid ([4]; pLC): 0.1155
Fold Change of NacetylDglucosamine ([4]; pLC): 0
Fold Change of NacetylLglutamate ([4]; pLC): 0
Fold Change of NacetylLornithine ([4]; pLC): 0.1584
Fold Change of adenine ([4]; pLC): −0.09439
Fold Change of alanine/sarcosine ([4]; pLC): 0.1269
Fold Change of allantoic acid ([4]; pLC): 0
Fold Change of anthranilic acid ([4]; pLC): 0
Fold Change of arginine ([4]; pLC): 0.1179
Fold Change of argininosuccinate ([4]; pLC): 0
Fold Change of asparagine ([4]; pLC): 0.3192
Fold Change of aspartic acid ([4]; pLC): 0.214
Fold Change of biotin ([4]; pLC): 0
Fold Change of caffeine ([4]; pLC): 0
Fold Change of citric acid TME ([4]; pLC): 0
Fold Change of citrulline ([4]; pLC): 0.08252
Fold Change of cytidine ([4]; pLC): 0
Fold Change of cytosine ([4]; pLC): 0
Fold Change of diaminopimelic acid ([4]; pLC): 0
Fold Change of dihydrofolic acid ([4]; pLC): 0
Fold Change of dipicolinic acid ([4]; pLC): 0
Fold Change of folic acid ([4]; pLC): 0
Fold Change of glucosamine ([4]; pLC): 0
Fold Change of glucosamine6PO4 ([4]; pLC): 0
Fold Change of glutamate ([4]; pLC): −0.06179
Fold Change of glutathione ([4]; pLC): −0.05832
Fold Change of histidine ([4]; pLC): 0
Fold Change of hydrocortisone ([4]; pLC): 0
Fold Change of hypoxanthine ([4]; pLC): 0.1298
Fold Change of itaconic acid dimes ([4]; pLC): 0
Fold Change of kinetin ([4]; pLC): 0
Fold Change of leucine/isoleucine/ ([4]; pLC): 0.1638
Fold Change of luteolin ([4]; pLC): 0
Fold Change of mannitol ([4]; pLC): 0.152
Fold Change of methionine ([4]; pLC): −0.2906
Fold Change of mevalonic lactone ([4]; pLC): −0.5175
Fold Change of niacinamide ([4]; pLC): 0
Fold Change of nicotinic acid ([4]; pLC): −0.7982
Fold Change of nopaline ([4]; pLC): 0
Fold Change of ornithine ([4]; pLC): 0.4775
Fold Change of phenylalanine ([4]; pLC): −0.1809
Fold Change of phosphoenolpyruvate ([4]; pLC): 0
Fold Change of pipecolic acid ([4]; pLC): 0.2583
Fold Change of progesterone ([4]; pLC): 0
Fold Change of proline ([4]; pLC): 0.2075
Fold Change of pyridoxine ([4]; pLC): −0.3831

CC(C)OC(=O)Nc1cccc(Cl)c1 [Chloropropham]
phenotype observed (Arabidopsis thaliana [2]): neither showed a strong herbicidal phenotype
commonly regulated (putative stress-related) metabolites (Arabidopsis thaliana [5]): neither butylate nor chlorpropham treatment resulted in many changes in these commonly regulated metabolites

CCSC(=O)N(CC(C)C)CC(C)C [Butylate]
phenotype observed (Arabidopsis thaliana [2]): neither showed a strong herbicidal phenotype
commonly regulated (putative stress-related) metabolites (Arabidopsis thaliana [5]): neither butylate nor chlorpropham treatment resulted in many changes in these commonly regulated metabolites
